Consider 1 substance from patent publication US10806147B2, “Treatment method for a hydrocarbon-containing system using a biocide” (RHODIA OPERATIONS, priority 2011, dated 2020).

Like-named read-outs stand apart in the source and are kept apart here.

The experiment relates to sulphate-reducing prokaryotes (SRP). The procedure: The bioreactor used was constructed from titanium; this construction eliminated the risk of any production of iron sulphides through corrosion, which in turn would react with injected THPS. […] The column was packed with low-iron sand (Fisher, UK) with a glass fibre plug at the base to prevent the draining of sand during filling. The column fittings (injection and production pipework) were constructed from 316 stainless steel (Swagelok).
The column was maintained at 1000 psig (70 barg) and 24° C.±1° C. The pressure was held between the pump head and the proportional release valve. The use of 1-way valves in the injection head permitted disconnection and maintenance of the pump without depressurisation of the column.
The pump used was a high-pressure liquid chromatography pump (PerkinElmer Series 100). The pump was operated in a continuous fashion at an injection rate of 1 mL/min, injecting into the head of the bioreactor.
Injection fluid was prepared daily on workdays, with three days of fluid prepared on Friday to cover the weekend. During the week, a single pump was used on a continuous basis. Over the weekend, three pumps were used, cycling in three hour injection windows. The injection fluid was stored in a polyethylene terephthalate (PET) nitrogen-pressurised vessel at 2° C.±1° C.
The North Sea seawater used throughout the study was collected from Bridlington, Yorkshire on a quarterly basis. It was de-oxygenated through nitrogen sparging over a 48 hour period. Metabolisable carbon was added to the seawater in the form of volatile fatty acids (VFA) in the ratio of 100 acetate:10 propionate:1 butyrate by weight. Acetate and propionate were added as salt in order to avoid acidification of the injection fluid, whilst butyrate was added as the acid. The pH of the injection fluid was between 7.5 and 8 before the addition of THPS. The VFA totalled 111 mg/L, which, if converted entirely to sulphide (i.e. none used for biomass growth), should permit the production of 67 mg/L H2S.
The bioreactor was inoculated using a mixed consortia of prokaryotes obtained from North Sea seawater and North Sea oil reservoirs. Rawwater Engineering Company Limited (RECL) maintained a mixed consortia of sulphate-reducing prokaryotes (SRP) in bioreactors under the experimental conditions required for the project (24° C., 1000 psig). These bioreactors were used solely for inoculation purposes. Both bioreactors increased the chances of successfully inoculating new bioreactors, by limiting the changes in environmental conditions the microbes were subjected to and thus limiting stress. The column was inoculated with microbes, shut-in for a fortnight and operated under batch flow conditions (140 mL fluid per day in equally spaced thirty-minute injection windows) until SRP were known to be established through the production of hydrogen sulphide.
Effluent samples were collected on a daily basis onto zinc acetate. This reacted with the volatile hydrogen sulphide to form stable zinc sulphide precipitate, which permitted analysis at a later time. All samples were analysed within six hours of collection. The samples were analysed through the standard methylene blue colourimetric procedure, which was calibrated monthly against the iodometric sulphide method.
Three trials were conducted: • Trial 1—Starting with a dose of 30 mg/L THPS, the dose concentration of THPS was reduced in 10 mg/L steps until sulphide recovery was observed. […] This indicated the minimum starting concentration of THPS required to convert the SRP from normal activity to biostasis.

With “Tetrakis(hydroxymethyl)phosphonium sulphate [THPS]”, for the setting “Trial 1, after 86 days total biocide injection, THPS removed entirely”, the “period of continued low hydrogen sulphide after removal of THPS, before gradual rise” value was 25 to 27 days. Moreover, the “increase in sulphide during dosing” value (Trial 1, dose reduced to 10 mg/L, 14 days) was “no significant increase in sulphide was recorded”. Also, under “Trial 1, pre-soured bioreactor, 30 mg/L active THPS (60 mg/L Tolcide PS50A, incl. penetrant), continuous, 24 °C, 1000 psig”, the “biological activity and sulphide production on introduction of THPS” value is “collapse in biological activity and sulphide production to sub-mg/L concentrations”. For the same substance, the “biological activity and effluent sulphide on introduction of THPS” value (Trial 2, 30 mg/L THPS plus penetrant, continuous) was “immediate collapse of biological activity and effluent sulphide”. The “effluent sulphide during reduced dosing” value (Trial 2, 20 and 10 mg/L THPS, biocide injected 91 days in total) is “remained suppressed”. The “biostasis of the column” value (Trial 3, 5 mg/L THPS plus penetrant, slow inhibited increase in effluent sulphide) is reported as “insufficient to keep the entire column under biostasis”. Besides, the effluent sulphide result was “the effluent sulphide collapsed and remained low” (Trial 3, dose increased to 20 mg/L THPS); “appeared to stabilise the effluent sulphide” (Trial 3, dose increased via 10 mg/L to 15 mg/L THPS). Where the note is “Trial 3, sour column, 5 mg/L THPS plus penetrant, continuous”, the “growth of the SRP population” value is “rapidly halted the growth of the SRP population”.
